# Biological target: recombinant human MGAT2 (Homo sapiens (Human), UniProt Q3SYC2)
# Assay: Measurement of human MGAT2 inhibitory activity
# Format: biochemical
# Details: read-out: IC50 (concentration exhibiting 50% enzyme inhibition), Table 53
# Outline: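 Membrane fraction of Sf9 cells expressing N-terminally Flag-tagged full-length human MGAT2, incubated 1 h at room temperature in 100 mmol/L phosphate pH 7.4 with 2 mmol/L DTT. The substrate solution held 30 μmol/L 2-oleoylglycerol and 10 μmol/L oleoyl-CoA. Diolein product was quantified by RapidFire ESI Q-TOF MS against diolein-d5 internal standard; % inhibition was set relative to with/without-enzyme controls.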
# Chain of recombinant human MGAT2 (Q3SYC2 whole entry): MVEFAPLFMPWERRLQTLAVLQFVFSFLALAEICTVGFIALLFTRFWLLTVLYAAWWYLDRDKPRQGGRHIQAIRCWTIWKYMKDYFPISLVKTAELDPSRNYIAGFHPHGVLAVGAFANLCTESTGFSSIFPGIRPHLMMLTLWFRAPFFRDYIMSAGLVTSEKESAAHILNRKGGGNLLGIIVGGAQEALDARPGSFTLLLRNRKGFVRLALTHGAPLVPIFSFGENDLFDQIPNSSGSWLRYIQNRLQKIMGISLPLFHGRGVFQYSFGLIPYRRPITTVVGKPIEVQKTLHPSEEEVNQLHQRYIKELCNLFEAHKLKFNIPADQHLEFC
row,Structure (SMILES),IC50
1,Cc1ccc(-n2nc3c(c2C(=O)NCC(N)=O)C(=O)N[C@@](c2ccc(OCC(F)(F)F)cc2F)(C(F)(F)F)C3)nc1 [II-241],24.6 nM
2,Cc1ccc(-n2nc3c(c2C(=O)NCCS(N)(=O)=O)C(=O)N[C@@](c2ccc(OCC(F)(F)F)cc2F)(C(F)(F)F)C3)nc1 [II-242],25.6 nM
3,N#CCNC(=O)c1c2c(nn1-c1ccc(C#N)cn1)C[C@@]1(CCc3cc(OCC(F)(F)F)ccc31)NC2=O [II-243],1.74 nM
4,N#Cc1ccc(-n2nc3c(c2C(=O)NCC(F)(F)F)C(=O)N[C@]2(CCc4cc(OCC(F)(F)F)ccc42)C3)nc1 [II-244],4.81 nM
5,N#Cc1ccc(-n2nc3c(c2C(=O)NCC(N)=O)C(=O)N[C@]2(CCc4cc(OCC(F)(F)F)ccc42)C3)nc1 [II-245],11.3 nM
6,N#Cc1ccc(-n2nc3c(c2C(=O)NCCS(N)(=O)=O)C(=O)N[C@]2(CCc4cc(OCC(F)(F)F)ccc42)C3)nc1 [II-246],3.73 nM
7,COCCS(=O)(=O)NC(=O)c1c2c(nn1-c1ccc(C)c(F)c1)C[C@]1(CCc3cc(OCC(F)(F)F)ccc31)NC2=O [II-247],48.4 nM
8,Cc1ccc(-n2nc3c(c2NC(=O)CS(C)(=O)=O)C(=O)N[C@@]2(CCOc4cc(OCC(F)(F)F)ccc42)C3)cc1F [II-248],1.8 nM
9,Cc1ccc(-n2nc3c(c2C(=O)NCC2(CO)CC2)C(=O)N[C@@]2(CCOc4cc(OCC(F)(F)F)ccc42)C3)nc1 [II-249],13.4 nM
10,CS(=O)(=O)CC(=O)Nc1c2c(nn1-c1ccc(F)c(F)c1)C[C@]1(CCOc3cc(Cl)ccc31)NC2=O [II-250],3.91 nM
11,Cc1cc(-n2nc3c(c2C(=O)NCC#N)C(=O)N[C@@]2(CCc4cc(OCC(F)(F)F)ccc42)C3)no1 [II-251],10.1 nM
12,Cc1cc(-n2nc3c(c2C(=O)NCC(F)(F)F)C(=O)N[C@@]2(CCc4cc(OCC(F)(F)F)ccc42)C3)no1 [II-252],22.6 nM
13,Cc1cc(-n2nc3c(c2C(=O)NCC(N)=O)C(=O)N[C@@]2(CCc4cc(OCC(F)(F)F)ccc42)C3)no1 [II-253],4.28 nM
14,Cc1cc(-n2nc3c(c2C(=O)NCCS(N)(=O)=O)C(=O)N[C@@]2(CCc4cc(OCC(F)(F)F)ccc42)C3)no1 [II-254],45.7 nM
15,CC(F)(F)COc1ccc2c(c1)CC[C@@]21Cc2nn(CCCOC(F)(F)F)c(NC(=O)CS(C)(=O)=O)c2C(=O)N1 [II-255],2.74 nM
16,CS(=O)(=O)CC(=O)Nc1c2c(nn1-c1cc(C(F)(F)F)on1)C[C@]1(CCOc3cc(OCC(F)(F)F)ccc31)NC2=O [II-256],5.26 nM
17,CC(C)(C)c1cc(-n2nc3c(c2NC(=O)CS(C)(=O)=O)C(=O)N[C@@]2(CCOc4cc(OCC(F)(F)F)ccc42)C3)no1 [II-257],0.409 nM
18,CS(=O)(=O)CC(=O)Nc1c2c(nn1-c1ccc(C(F)F)nn1)C[C@]1(CCc3cc(OCCCC(F)(F)F)ccc31)NC2=O [II-258],0.285 nM
19,CS(=O)(=O)CC(=O)Nc1c2c(nn1-c1ccc(C3CC3)nn1)C[C@]1(CCc3cc(OCCCC(F)(F)F)ccc31)NC2=O [II-259],0.439 nM
20,CS(=O)(=O)CC(=O)Nc1c2c(nn1CCC1CC1)C[C@]1(CCc3c1ccc(N1CC(F)(F)C1)c3F)NC2=O [II-260],14 nM
21,CS(=O)(=O)CC(=O)Nc1c2c(nn1CCCOC(F)(F)F)C[C@@]1(CCc3cc(OCC(F)(F)C(F)(F)F)ccc31)NC2=O [II-261],1 nM

row,Structure (SMILES),IC50
1,O=C1N[C@@]2(CCc3cc(OCC(F)(F)F)ccc32)Cc2nn(CCCOC(F)F)c(C(=O)NS(=O)(=O)C3CC3)c21 [II-262],8.83 nM
2,Cc1ccc(-n2nc3c(c2NC(=O)CC#N)C(=O)N[C@@]2(CCOc4cc(OCC(F)(F)F)ccc42)C3)nc1 [II-263],40 nM
3,NS(=O)(=O)CCNC(=O)c1c2c(nn1CCCOC(F)F)C[C@]1(CCc3cc(OCC(F)(F)F)ccc31)NC2=O [II-264],16.1 nM
4,O=C1N[C@@]2(CCc3cc(OCC(F)(F)F)ccc32)Cc2nn(CCCOC(F)F)c(C(=O)NCC3(O)CC3)c21 [II-265],54.4 nM
5,Cc1cc(-n2nc3c(c2NC(=O)CS(C)(=O)=O)C(=O)N[C@@]2(CCOc4cc(Cl)ccc42)C3)no1 [II-266],1.81 nM
6,Cc1cc(-n2nc3c(c2NC(=O)CS(C)(=O)=O)C(=O)N[C@@]2(CCOc4cc(CCC(F)(F)F)ccc42)C3)no1 [II-267],1 nM
7,Cc1cc(-n2nc3c(c2NC(=O)CS(C)(=O)=O)C(=O)N[C@@]2(CCc4cc(OCCCC(F)(F)F)ccc42)C3)nn1C [II-268],1.24 nM
8,Cc1ccc(-n2nc3c(c2NC(=O)CC(N)=O)C(=O)N[C@@]2(CCOc4cc(OCC(F)(F)F)ccc42)C3)nc1 [II-269],11.7 nM
9,CNS(=O)(=O)CC(=O)Nc1c2c(nn1-c1ccc(C)cn1)C[C@]1(CCOc3cc(OCC(F)(F)F)ccc31)NC2=O [II-271],1.34 nM
10,Cc1ccc(-n2nc3c(c2NC(=O)C2(S(C)(=O)=O)CC2)C(=O)N[C@@]2(CCOc4cc(OCC(F)(F)F)ccc42)C3)nc1 [II-272],210 nM
11,N#Cc1ccc(-n2nc3c(c2C(=O)NS(=O)(=O)C2CC2)C(=O)N[C@]2(CCc4cc(OCC(F)(F)F)ccc42)C3)nc1 [II-273],14 nM
12,Cc1ccc(-n2nc3c(c2C(=O)NS(=O)(=O)C2CC2)C(=O)N[C@@](c2ccc(OCC(F)(F)F)cc2F)(C(F)(F)F)C3)nc1 [II-274],6.67 nM
13,CS(=O)(=O)CC(=O)Nc1c2c(nn1CCCOC(F)(F)F)C[C@@]1(CCc3cc(OCCCC(F)(F)F)ccc31)NC2=O [II-277],1 nM
14,Cc1cc(-n2nc3c(c2NC(=O)CS(C)(=O)=O)C(=O)N[C@@]2(CCc4cc(C(F)(F)F)ccc42)C3)nn1C [II-278],5.92 nM
15,CS(=O)(=O)CC(=O)Nc1c2c(nn1CCCOC(F)(F)F)C[C@@]1(CCOc3cc(C4CC4)ccc31)NC2=O [II-279],1.12 nM
16,CS(=O)(=O)CC(=O)Nc1c2c(nn1CCCOC(F)(F)F)C[C@@]1(CCOc3cc(CCC(F)(F)F)ccc31)NC2=O [II-280],< 1 nM
17,Cc1cc(-n2nc3c(c2NC(=O)CS(C)(=O)=O)C(=O)N[C@@]2(CCc4cc(OCCCC(F)(F)F)ccc42)C3)no1 [II-282],< 1 nM
18,CS(=O)(=O)CC(=O)Nc1c2c(nn1CCCOC(F)(F)F)C[C@]1(CCc3cc(CCC(F)(F)F)ccc31)NC2=O [II-283],< 1 nM
19,CS(=O)(=O)CC(=O)Nc1c2c(nn1CCCOC(F)(F)F)C[C@@]1(CCc3cc(CCC(F)(F)F)ccc31)NC2=O [II-284],< 1 nM
20,CS(=O)(=O)CC(=O)Nc1c2c(nn1CCCOC(F)F)C[C@]1(CCc3cc(CCC(F)(F)F)ccc31)NC2=O [II-285],1.04 nM
21,CS(=O)(=O)CC(=O)Nc1c2c(nn1CCCOC(F)F)C[C@@]1(CCc3cc(CCC(F)(F)F)ccc31)NC2=O [II-286],1.15 nM

row,Structure (SMILES),IC50
1,CS(=O)(=O)CC(=O)Nc1c2c(nn1-c1ccc(C(F)F)cc1)C[C@]1(CCc3cc(N4CC(F)(F)C4)ccc31)NC2=O [II-287],5.26 nM
2,CC(F)(F)COc1ccc2c(c1)CC[C@]21Cc2nn(-c3ccc(C(F)F)cc3)c(NC(=O)CS(C)(=O)=O)c2C(=O)N1 [II-288],3.31 nM
3,CCS(=O)(=O)CC(=O)Nc1c2c(nn1CCCOC(F)(F)F)C[C@@]1(CCOc3cc(OCC(F)(F)F)ccc31)NC2=O [II-289],1.06 nM
4,CS(=O)(=O)CC(=O)Nc1c2c(nn1CCCOC(F)F)C[C@]1(CCc3cc(OCC4CC(F)(F)C4)ccc31)NC2=O [II-290],< 1 nM
5,CS(=O)(=O)CC(=O)Nc1c2c(nn1CCCOC(F)F)C[C@@]1(CCc3cc(OCC4CC(F)(F)C4)ccc31)NC2=O [II-291],< 1 nM
6,O=C1N[C@]2(CCOc3cc(OCC(F)(F)F)ccc32)Cc2nn(CCCOC(F)(F)F)c(NC(=O)C3CS(=O)(=O)C3)c21 [II-293],2.76 nM
7,CS(=O)(=O)CC(=O)Nc1c2c(nn1-c1ccc(C(F)(F)F)cn1)C[C@]1(CCOc3cc(OCC(F)(F)F)ccc31)NC2=O [II-294],< 1 nM
8,CS(=O)(=O)CC(=O)Nc1c2c(nn1-c1ccc(C3CC3)cn1)C[C@]1(CCOc3cc(OCC(F)(F)F)ccc31)NC2=O [II-296],< 1 nM
9,CS(=O)(=O)CC(=O)Nc1c2c(nn1-c1ccc(C(F)F)cn1)C[C@]1(CCc3cc(OCC(F)(F)F)ccc31)NC2=O [II-297],< 1 nM
10,CS(=O)(=O)CC(=O)Nc1c2c(nn1-c1ccc(C(F)F)cc1)C[C@]1(CCOc3cc(OCC(F)(F)F)ccc31)NC2=O [II-298],< 1 nM
11,Cc1cc(-n2nc3c(c2NC(=O)CS(C)(=O)=O)C(=O)N[C@@]2(CCc4cc(CCC(F)(F)F)ccc42)C3)nn1C [II-299],1.98 nM
12,Cc1cc(-n2nc3c(c2NC(=O)CS(C)(=O)=O)C(=O)N[C@](C)(c2ccc(CCC(F)(F)F)cc2F)C3)no1 [II-300],< 1 nM
13,CS(=O)(=O)CC(=O)Nc1c2c(nn1-c1ccc(F)cc1)CC1(CN(c3ccc(C(F)(F)F)cc3)C1)NC2=O [II-301],15.9 nM
14,Cc1ccc(-n2nc3c(c2NC(=O)CS(C)(=O)=O)C(=O)N[C@@]2(CCc4cc(C5CC5)ccc42)C3)nn1 [II-302],3.61 nM
15,Cc1cc(-n2nc3c(c2NC(=O)CS(C)(=O)=O)C(=O)N[C@@]2(CCc4cc(C5CC5)ccc42)C3)nn1C [II-303],4.42 nM
16,Cc1ccc(-n2nc3c(c2NC(=O)CS(C)(=O)=O)C(=O)N[C@@]2(CCc4cc(CCC(F)(F)F)ccc42)C3)nn1 [II-304],1.39 nM
17,Cc1cc(-n2nc3c(c2NC(=O)CS(C)(=O)=O)C(=O)N[C@](C)(c2ccc(OCCCC(F)(F)F)cc2F)C3)no1 [II-305],1 nM
18,Cc1cc(-n2nc3c(c2NC(=O)CS(C)(=O)=O)C(=O)N[C@@]2(CCc4cc(Cl)ccc42)C3)nn1C [II-306],11.3 nM
19,Cc1ccc(-n2nc3c(c2NC(=O)CS(C)(=O)=O)C(=O)N[C@@]2(CCc4cc(Cl)ccc42)C3)nn1 [II-307],6.19 nM
20,Cc1ccc(-n2nc3c(c2NC(=O)CS(C)(=N)=O)C(=O)NC2(C3)CN(c3ccc(C(F)(F)F)cc3)C2)nc1 (centres unmarked) [II-308],6.58 nM

# From patent US11198695B2, “Fused ring derivative having MGAT-2 inhibitory activity” (Shionogi & Co., Ltd., priority 2017, dated 2021)
